Structures can show the parent of a compound that is named as a salt. Where two headings read alike, the source gives them in different places.
Tests used:
Recombinant human p38α = target: T1, Recombinant human p38α (Homo sapiens, UniProt Q16539); assay: Fluorescence anisotropy kinase binding assay (standard or low volume); conditions: for active in the assay (pIC50, p38α binding): 12 nM p38α, 5 nM fluorescent ligand
T1 construct: GST; made in house
Description: (§1) The concentration of kinase enzyme should preferably be >2×Kf. The concentration of fluorescent ligand required will depend on the instrumentation used, and the fluorescent and physicochemical properties. The concentration used must be lower than the concentration of kinase enzyme, and preferably less than half the kinase enzyme concentration.
The fluorescent ligand is the following compound:
[drawing 329] • which is derived from 5-[2-(4-aminomethylphenyl)-5-pyridin-4-yl-1H-imidazol-4-yl]-2-chlorophenol and rhodamine green. Recombinant human p38α was expressed as a GST-tagged protein. To activate this protein, 3.5 μM unactivated p38α was incubated in 50 mM Tris-HCl pH 7.5, 0.1 mM EGTA, 0.1% 2-mercaptoethanol, 0.1 mM sodium vanadate, 10 mM MgAc, 0.1 mM ATP with 200 nM MBP-MKK6 DD at 30 degrees for 30 mins. Following activation p38α was re-purified and the activity assessed using a standard filter-binding assay. Protocol: All components are dissolved in buffer of composition 62.5 mM HEPES, pH 7.5, 1.25 mM CHAPS, 1 mM DTT, 12.5 mM MgCl2 with final concentrations of 12 nM p38α and 5 nM fluorescent ligand. 30 μl of this reaction mixture is added to wells containing 1 μl of various concentrations of test compound (0.28 nM-16.6 μM final) or DMSO vehicle (3% final) in NUNC 384 well black microtitre plate and equilibrated for 30-60 mins at room temperature. Fluorescence anisotropy is read in Molecular Devices Acquest (excitation 485 nm/emission 535 nm). Definitions: Ki=dissociation constant for inhibitor binding • Kf=dissociation constant for fluorescent ligand binding
as §1, with “2×Kf.” for “>2×Kf.”, “concentration. The fluorescent ligand is the following compound:” for “concentration.”
which is derived from 5-[2-(4-aminomethylphenyl)-5-pyridin-4-yl-1H-imidazol-4-yl]-2-chlorophenol and rhodamine green. Recombinant human p38α was expressed as a GST-tagged protein. To activate this protein, 3.5 μM unactivated p38α was incubated in 50 mM Tris-HCl pH 7.5, 0.1 mM EGTA, 0.1% 2-mercaptoethanol, 0.1 mM sodium vanadate, 10 mM MgAc, 0.1 mM ATP with 200 nM MBP-MKK6 DD at 30 degrees for 30 mins. Following activation p38α was re-purified and the activity assessed using a standard filter-binding assay. Protocol: All components are dissolved in buffer of composition 62.5 mM HEPES, pH 7.5, 1.25 mM CHAPS, 1 mM DTT, 12.5 mM MgCl2 with final concentrations of 12 nM p38α and 5 nM fluorescent ligand. […] of this reaction mixture is added to wells containing 0.1 μl of various concentrations of test compound (0.02 nM-25 μM final) or DMSO vehicle (1.7% final) in Greiner low volume 384 well black microtitre plate and equilibrated for 30-60 mins at room temperature. Fluorescence anisotropy is read in Molecular Devices Acquest (excitation 485 nm/emission 535 nm). Definitions: Ki dissociation constant for inhibitor binding • Kf=dissociation constant for fluorescent ligand binding It is noted that there are two assay formats shown above for the Fluorescence anisotropy kinase binding assay. The only difference between these two assays is the volume used and the plate type. […] The results described herein may have been performed in either assay format and are not differentiated as to which.

[1] = system: IL-8 production by human neutrophils; assay: TNF-stimulated IL-8 production from human neutrophils; assay type: cell-based; conditions: Neutrophil
[2] = system: influx of neutrophils to the lung in LPS-challenged rats; assay: Rat LPS neutrophilia model; assay type: in vivo; conditions: LPS aerosol, lavage 4 hours later, in at least one of the range of conditions tested, significance p<0.05
Outline: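 Rats pretreated 15 min–24 h with compound or vehicle, given intratracheally (200 ul, isoflurane anaesthesia) as suspension in various vehicles, then exposed to LPS aerosol (100 ug/ml) 15 min. BAL 4 h later; Diffquick-stained differential counts give % inhibition of neutrophils versus no-compound controls at a set concentration and pretreatment time.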

[3] = bound, read-out: apparent pIC50 (converted)
[4] = ends given as 'less than' / 'greater than', read-out: IC50, broad range of data upon multiple runs
[5] = second end given as 'less than', read-out: pIC50, broad range of data upon multiple runs (converted)
[6] = bound, not more than 50% inhibition at 100 nM, read-out: IC50

T1 sequence (Q16539 whole entry): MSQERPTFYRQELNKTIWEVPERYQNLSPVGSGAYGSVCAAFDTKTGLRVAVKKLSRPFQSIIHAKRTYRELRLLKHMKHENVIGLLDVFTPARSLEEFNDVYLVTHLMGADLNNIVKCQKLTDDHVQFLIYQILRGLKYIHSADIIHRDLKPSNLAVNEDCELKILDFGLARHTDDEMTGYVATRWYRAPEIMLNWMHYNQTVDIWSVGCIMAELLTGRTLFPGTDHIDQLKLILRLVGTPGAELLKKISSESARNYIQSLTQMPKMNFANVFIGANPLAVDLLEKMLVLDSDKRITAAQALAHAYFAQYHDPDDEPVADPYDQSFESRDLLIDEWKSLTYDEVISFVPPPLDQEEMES

Cc1ccc(C(=O)NCc2ccccc2)cc1-c1nc(NCCN(C)C(=O)OC(C)(C)C)nc2c1CNC(=O)N2c1c(F)cccc1F [19(a), 1,1-Dimethylethyl (2-{[8-(2,6-difluorophenyl)-4-(2-methyl-5-{[(phenylmethyl)amino]carbonyl}phenyl)-7-oxo-5,6,7,8-tetrahydropyrimido[4,5-d]pyrimidin-2-yl]amino}ethyl)methylcarbamate]
IC50 (Recombinant human p38α; [3]): > 15800 nM | IC50 [1, 4]: 40 to 100 nM

CSc1nc(-c2cc(C(=O)NCc3ccccc3)ccc2C)c2c(n1)N(c1c(F)cccc1F)C(=O)NC2 [15(a), 3-[8-(2,6-Difluorophenyl)-2-(methylthio)-7-oxo-5,6,7,8-tetrahydropyrimido[4,5-d]pyrimidin-4-yl]-4-methyl-N-(phenylmethyl)benzamide]
active in the assay (pIC50, p38α binding) (Recombinant human p38α): active | IC50 [1, 4]: 40 to 100 nM

Cc1ccc(C(=O)NC(C)C)cc1-c1nc(N2CCN(C(c3ccccc3)c3ccccc3)CC2)nc2c1CNC(=O)N2c1c(F)cccc1F [Example 84, 3-{8-(2,6-difluorophenyl)-2-[4-(diphenylmethyl)-1-piperazinyl]-7-oxo-5,6,7,8-tetrahydropyrimido[4,5-d]pyrimidin-4-yl}-4-methyl-N-(1-methylethyl)benzamide trifluoroacetate]
IC50 (Recombinant human p38α; [5]): > 1780 nM | IC50 [1, 6]: > 100 nM

CNC(=O)c1ccc(C)c(-c2nc(NCCNC(C)C)nc3c2CNC(=O)N3c2c(F)cccc2F)c1 [Example 167, 3-[8-(2,6-difluorophenyl)-2-({2-[(1-methylethyl)amino]ethyl}amino)-7-oxo-5,6,7,8-tetrahydropyrimido[4,5-d]-pyrimidin-4-yl]-N,4-dimethylbenzamide]
melting point: 136 to 139 °C (dec.)

CN(C)CCNc1nc(-c2ccc(C(=O)Nc3nccs3)cc2)c2c(n1)N(c1c(F)cccc1F)C(=O)NC2 [96(b), 4-(8-(2,6-difluorophenyl)-2-{[2-(dimethylamino)ethyl]amino}-7-oxo-5,6,7,8-tetrahydropyrimido[4,5-d]pyrimidin-4-yl)-N-1,3-thiazol-2-ylbenzamide]
active in the assay (pIC50, p38α binding) (Recombinant human p38α): active | IC50 [1, 6]: > 100 nM

CN(C)CCNc1nc(-c2ccc(C(=O)Nc3ccccc3)cc2)c2c(n1)N(c1c(F)cccc1F)C(=O)NC2 [Example 99, 4-(8-(2,6-difluorophenyl)-2-{[2-(dimethylamino)ethyl]amino}-7-oxo-5,6,7,8-tetrahydropyrimido[4,5-d]-pyrimidin-4-yl)-N-phenylbenzamide trifluoroacetate]
IC50 (Recombinant human p38α; [5]): ≥ 1260 nM | IC50 [1, 6]: > 100 nM

Cc1ccc(C(=O)NC(C)C)cc1-c1nc(N2CCC(N3CCN(C)CC3)CC2)nc2c1CNC(=O)N2c1c(F)cccc1F [Example 72, 3-{8-(2,6-difluorophenyl)-2-[4-(4-methyl-1-piperazinyl)-1-piperidinyl]-7-oxo-5,6,7,8-tetrahydropyrimido[4,5-d]pyrimidin-4-yl}-4-methyl-N-(1-methylethyl)benzamide]
IC50 ([1]; bound, screened at a different top concentration, read-out: IC50): > 1 nM | inhibition of neutrophilia [2]: statistically significant inhibition of neutrophilia

Cc1ccc(C(=O)NCC2CC2)cc1-c1nc(N(C)CCN)nc2c1CNC(=O)N2c1c(F)cccc1F [4(c), 3-[2-[(2-Aminoethyl)(methyl)amino]-8-(2,6-difluorophenyl)-7-oxo-5,6,7,8-tetrahydropyrimido[4,5-d]pyrimidin-4-yl]-N-(cyclopropylmethyl)-4-methylbenzamide]
active in the assay (pIC50, p38α binding) (Recombinant human p38α): active | IC50 [1, 6]: > 100 nM

CN(C)CCNc1nc(-c2ccc(C(=O)Nc3ccc(F)cc3)cc2)c2c(n1)N(c1c(F)cccc1F)C(=O)NC2 [Example 100, 4-(8-(2,6-difluorophenyl)-2-{[2-(dimethylamino)ethyl]amino}-7-oxo-5,6,7,8-tetrahydropyrimido[4,5-d]pyrimidin-4-yl)-N-(4-fluorophenyl)benzamide trifluoroacetate]
IC50 (Recombinant human p38α; [3]): > 15800 nM | IC50 [1, 6]: > 100 nM

CN(C)CCNc1nc(-c2ccc(C(N)=O)cc2)c2c(n1)N(c1c(F)cccc1F)C(=O)NC2 [Example 103, 4-(8-(2,6-difluorophenyl)-2-{[2-(dimethylamino)ethyl]amino}-7-oxo-5,6,7,8-tetrahydropyrimido[4,5-d]pyrimidin-4-yl)benzamide trifluoroacetate]
IC50 (Recombinant human p38α; [3]): > 15800 nM | IC50 [1, 6]: > 100 nM

Cc1ccc(C(=O)NCC2CC2)cc1-c1nc(NC2CCNCC2)nc2c1CNC(=O)N2c1c(F)cccc1F [6(b), N-(Cyclopropylmethyl)-3-[8-(2,6-difluorophenyl)-7-oxo-2-(4-piperidinylamino)-5,6,7,8-tetrahydropyrimido[4,5-d]pyrimidin-4-yl]-4-methylbenzamide]
active in the assay (pIC50, p38α binding) (Recombinant human p38α): active | IC50 [1, 6]: > 100 nM

CN(C)CCNc1nc(-c2ccc(C(=O)N(C)C)cc2)c2c(n1)N(c1c(F)cccc1F)C(=O)NC2 [Example 101, 4-(8-(2,6-difluorophenyl)-2-{[2-(dimethylamino)ethyl]amino}-7-oxo-5,6,7,8-tetrahydropyrimido[4,5-d]pyrimidin-4-yl)-N,N-dimethylbenzamide trifluoroacetate]
IC50 (Recombinant human p38α; [3]): > 15800 nM | IC50 [1, 6]: > 100 nM

Cc1ccc(C(=O)NCc2ccccc2)cc1-c1nc(S(C)(=O)=O)nc2c1CNC(=O)N2c1c(F)cccc1F [15(b), 3-[8-(2,6-Difluorophenyl)-2-(methylsulfonyl)-7-oxo-5,6,7,8-tetrahydropyrimido[4,5-d]pyrimidin-4-yl]-4-methyl-N-(phenylmethyl)benzamide]
active in the assay (pIC50, p38α binding) (Recombinant human p38α): active | IC50 [1, 6]: > 100 nM

CCN(CC)C(=O)c1ccc(C)c(-c2nc(S(C)(=O)=O)nc3c2CNC(=O)N3c2c(F)cccc2F)c1 [156(b), 3-[8-(2,6-difluorophenyl)-2-(methylsulfonyl)-7-oxo-5,6,7,8-tetrahydropyrimido[4,5-d]pyrimidin-4-yl]-N,N-diethyl-4-methylbenzamide]
active in the assay (pIC50, p38α binding) (Recombinant human p38α): active | IC50 [1, 6]: > 100 nM

CCCNC(=O)c1ccc(-c2nc(NCCN(C)C)nc3c2CNC(=O)N3c2c(F)cccc2F)cc1 [Example 98, 4-(8-(2,6-difluorophenyl)-2-{[2-(dimethylamino)ethyl]amino}-7-oxo-5,6,7,8-tetrahydropyrimido[4,5-d]pyrimidin-4-yl)-N-propylbenzamide trifluoroacetate]
IC50 (Recombinant human p38α; [3]): > 15800 nM | IC50 [1, 6]: > 100 nM

Cc1ccc(C(=O)Nc2ccc(C)c(-c3nc(S(C)(=O)=O)nc4c3CNC(=O)N4c3c(F)cccc3F)c2)cc1F [23(d), N-[3-[8-(2,6-difluorophenyl)-2-(methylsulfonyl)-7-oxo-5,6,7,8-tetrahydropyrimido[4,5-d]pyrimidin-4-yl]-4-methylphenyl]-3-fluoro-4-methylbenzamide]
active in the assay (pIC50, p38α binding) (Recombinant human p38α): active | IC50 [1, 6]: > 100 nM

CNCCNc1nc(-c2cc(C(=O)NCC3CC3)ccc2C)c2c(n1)N(c1c(F)cccc1F)C(=O)NC2 [Example 5, N-(Cyclopropylmethyl)-3-(8-(2,6-difluorophenyl)-2-{[2-(methylamino)ethyl]amino}-7-oxo-5,6,7,8-tetrahydropyrimido[4,5-d]pyrimidin-4-yl)-4-methylbenzamide]
active in the assay (pIC50, p38α binding) (Recombinant human p38α): active | IC50 [1, 6]: > 100 nM

CCN(CC)C(=O)c1ccc(C)c(-c2nc(SC)nc3c2CNC(=O)N3c2c(F)cccc2F)c1 [156(a)]
active in the assay (pIC50, p38α binding) (Recombinant human p38α): active | IC50 [1, 6]: > 100 nM

From US20090239846A1, “Novel Compounds” (Glaxo Group Limited, priority 2005, published 2009)
